Starred links: 1 amine or outer side, 2 acyl side, 3 side chain; linkers in the order of their positions; H or OH if unused. Positions of bridges follow the written chain, without caps; N, C: chain ends. Non-standard residues stand in square brackets, D forms with d. Residues, ends and D or L forms follow the SMILES beside them. *: point of attachment. NMeF = CN[C@@H](Cc1ccccc1)C(=O)O; NMeGABA = CN(CCCC(=O)[*:2])[*:1]; NMeI = CC[C@H](C)[C@H](NC)C(=O)O; NMeβAla = CN(CCC(=O)[*:2])[*:1]; NMeL = CN[C@@H](CC(C)C)C(=O)O; NMeV = CN[C@H](C(=O)O)C(C)C; NMeA = CN[C@@H](C)C(=O)O; Piperidide = C1CCN(*)CC1; dNMeA = CN[C@H](C)C(=O)O
Test: PAMPA (parallel artificial membrane permeability assay)
Type: in vitro ADME
Settings: PAMPA; membrane permeation rate (Pe); 50 mM MOPSO buffer pH 6.5 with 5.0% glycocholic acid, 37° C., 18 hours; read-out: iPAMPA Pe
In short: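 Artificial membrane was 10% (w/v) egg lecithin plus 0.5% (w/v) cholesterol in dodecane on a PVDF filter. A 10 mM DMSO stock was added at 0.5% (v/v) to donor buffer (50 mM MOPSO, pH 6.5, 5.0% glycocholic acid). After 18 h at 37 °C, LC/MS or LC/UV gave donor and acceptor levels for Pe.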

**Q.** With `CC(C)C[C@H]1C(=O)N(C)[C@@H](Cc2ccccc2)C(=O)N[C@@H]([C@@H](C)O)C(=O)N[C@@H](C)C(=O)N(C)[C@@H](C)C(=O)N[C@H](C(=O)N(C)[C@@H](Cc2ccccc2)C(=O)N[C@@H](C)C(=O)N2CCCCC2)CC(=O)N(C)CCC(=O)N(C)[C@@H](Cc2ccccc2)C(=O)N(C)[C@@H](C(C)C)C(=O)N(C)[C@@H](C)C(=O)N[C@@H](C)C(=O)N1C` [DP-360] ([NMeβAla][NMeF][NMeV][NMeA]A[NMeL][NMeF]TA[NMeA]D[NMeF]A-Piperidide; lactam N-11) as the molecule, how does the Papp at 18 hours, 50 µM read?
**A.** The Papp at 18 hours, 50 µM was 7.3 ×10⁻⁶ cm/s.

**Q.** Which Papp at 18 hours, 50 µM does the source give for `CC[C@H](C)[C@@H]1NC(=O)[C@H](CC(C)C)N(C)C(=O)[C@H](C)N(C)C(=O)[C@H](C)N(C)C(=O)CCN(C)C(=O)C[C@@H](C(=O)N(C)[C@@H](Cc2ccccc2)C(=O)N[C@@H](C)C(=O)N2CCCCC2)NC(=O)[C@H](Cc2ccccc2)N(C)C(=O)[C@H](C)N(C)C(=O)[C@H]([C@@H](C)O)NC(=O)[C@H](Cc2ccccc2)N(C)C(=O)[C@H](C)N(C)C1=O` [DP-362] ([NMeβAla][NMeA][NMeA][NMeL]I[NMeA][NMeF]T[NMeA][NMeF]D[NMeF]A-Piperidide; lactam N-11) here?
**A.** The Papp at 18 hours, 50 µM was 27 ×10⁻⁶ cm/s.

**Q.** For `CC[C@H](C)[C@@H]1NC(=O)[C@H](C)N(C)C(=O)[C@H](CC(C)C)N(C)C(=O)CCCN(C)C(=O)C[C@@H](C(=O)N(C)[C@@H](Cc2ccccc2)C(=O)N[C@@H](C)C(=O)N2CCCCC2)NC(=O)[C@H](CC(C)C)N(C)C(=O)[C@H](C)N(C)C(=O)[C@H]([C@@H](C)O)NC(=O)[C@H](Cc2ccccc2)N(C)C(=O)[C@H](Cc2ccccc2)N(C)C(=O)[C@H](CC(C)C)N(C)C1=O` [DP-366] ([NMeGABA][NMeL][NMeA]I[NMeL][NMeF][NMeF]T[NMeA][NMeL]D[NMeF]A-Piperidide; lactam N-11), which Papp at 18 hours, 50 µM is on record?
**A.** Its Papp at 18 hours, 50 µM is 14 ×10⁻⁶ cm/s.

**Q.** For `CC(C)C[C@@H]1NC(=O)[C@H](CC(C)C)N(C)C(=O)CCN(C)C(=O)C[C@@H](C(=O)N(C)[C@@H](Cc2ccccc2)C(=O)N[C@@H](C)C(=O)N2CCCCC2)NC(=O)[C@H](CC(C)C)N(C)C(=O)[C@H](Cc2ccccc2)NC(=O)[C@H](Cc2ccccc2)N(C)C(=O)[C@H](C)NC(=O)[C@H]([C@@H](C)O)NC(=O)[C@H](CC(C)C)N(C)C1=O` [DP-369] ([NMeβAla][NMeL]L[NMeL]TA[NMeF]F[NMeL]D[NMeF]A-Piperidide; lactam N-10), which Papp at 18 hours, 50 µM is on record?
**A.** Its Papp at 18 hours, 50 µM is 26 ×10⁻⁶ cm/s.

**Q.** For `CC[C@H](C)[C@@H]1NC(=O)[C@H](CC(C)C)N(C)C(=O)[C@H](Cc2ccccc2)N(C)C(=O)[C@H]([C@@H](C)O)NC(=O)[C@H](C)N(C)C(=O)CCCN(C)C(=O)C[C@@H](C(=O)N(C)[C@@H](Cc2ccccc2)C(=O)N[C@@H](C)C(=O)N2CCCCC2)NC(=O)[C@H](CC(C)C)N(C)C(=O)[C@H](Cc2ccccc2)N(C)C(=O)[C@H](CC(C)C)N(C)C1=O` [DP-373] ([NMeGABA][NMeA]T[NMeF][NMeL]I[NMeL][NMeF][NMeL]D[NMeF]A-Piperidide; lactam N-10), which Papp at 18 hours, 50 µM is on record?
**A.** Its Papp at 18 hours, 50 µM is 9.2 ×10⁻⁶ cm/s.

**Q.** With `CC[C@H](C)[C@@H]1NC(=O)[C@H](C)N(C)C(=O)[C@H]([C@@H](C)O)NC(=O)[C@H](CC(C)C)N(C)C(=O)[C@H](Cc2ccccc2)NC(=O)[C@H](C(C)C)N(C)C(=O)[C@H](CC(C)C)N(C)C(=O)[C@H](C)N(C)C(=O)C[C@@H](C(=O)N(C)[C@@H](Cc2ccccc2)C(=O)N[C@@H](C)C(=O)N2CCCCC2)NC(=O)[C@H](CC(C)C)N(C)C1=O` [DP-376] ([NMeA][NMeL][NMeV]F[NMeL]T[NMeA]I[NMeL]D[NMeF]A-Piperidide; lactam N-10) as the molecule, how does the Papp at 18 hours, 50 µM read?
**A.** The Papp at 18 hours, 50 µM was 29 ×10⁻⁶ cm/s.

**Q.** For `CC(C)C[C@@H]1NC(=O)[C@H](CC(C)C)N(C)C(=O)[C@H](C)N(C)C(=O)C[C@@H](C(=O)N(C)[C@@H](Cc2ccccc2)C(=O)N[C@@H](C)C(=O)N2CCCCC2)NC(=O)[C@H]([C@@H](C)O)NC(=O)[C@H](CC(C)C)N(C)C(=O)[C@H](Cc2ccccc2)NC(=O)[C@H](Cc2ccccc2)N(C)C(=O)[C@H](CC(C)C)N(C)C1=O` [DP-387] ([NMeA][NMeL]L[NMeL][NMeF]F[NMeL]TD[NMeF]A-Piperidide; lactam N-9), which Papp at 18 hours, 50 µM is on record?
**A.** The Papp at 18 hours, 50 µM was 2.8 ×10⁻⁶ cm/s.

**Q.** Which Papp at 18 hours, 50 µM does the source give for `CC(C)[C@@H]1NC(=O)[C@H](Cc2ccccc2)N(C)C(=O)[C@H](C)N(C)C(=O)[C@H]([C@@H](C)O)NC(=O)CNC(=O)[C@H](C)N(C)C(=O)[C@H](Cc2ccccc2)NC(=O)[C@H](C)N(C)C(=O)C[C@@H](C(=O)N(C)[C@@H](Cc2ccccc2)C(=O)N(C)[C@@H](Cc2ccccc2)C(=O)N[C@@H](C)C(=O)N2CCCCC2)NC(=O)[C@H](C(C)C)N(C)C1=O` [DP-393] ([NMeA]F[NMeA]GT[NMeA][NMeF]V[NMeV]D[NMeF][NMeF]A-Piperidide; lactam N-10) here?
**A.** The Papp at 18 hours, 50 µM was 18 ×10⁻⁶ cm/s.

**Q.** Which Papp at 18 hours, 50 µM does the source give for `CC[C@H](C)[C@@H]1NC(=O)[C@H](CC(C)C)N(C)C(=O)[C@H](CC(C)C)N(C)C(=O)[C@H](C)N(C)C(=O)[C@H]([C@@H](C)O)NC(=O)[C@H](Cc2ccccc2)N(C)C(=O)[C@@H](C)N(C)C(=O)C[C@@H](C(=O)N(C)[C@@H](Cc2ccccc2)C(=O)N(C)[C@@H](Cc2ccccc2)C(=O)N[C@@H](C)C(=O)N2CCCCC2)NC(=O)[C@H](C(C)C)N(C)C1=O` [DP-399] ([dNMeA][NMeF]T[NMeA][NMeL][NMeL]I[NMeV]D[NMeF][NMeF]A-Piperidide; lactam N-9) here?
**A.** Its Papp at 18 hours, 50 µM is 0.89 ×10⁻⁶ cm/s.

**Q.** With `CC[C@H](C)[C@@H]1NC(=O)[C@H](Cc2ccccc2)N(C)C(=O)[C@H](C)N(C)C(=O)[C@H](CC(C)C)N(C)C(=O)[C@H](Cc2ccccc2)N(C)C(=O)CCN(C)C(=O)C[C@@H](C(=O)N(C)[C@@H](Cc2ccccc2)C(=O)N(C)[C@@H](Cc2ccccc2)C(=O)N[C@@H](C)C(=O)N2CCCCC2)NC(=O)[C@H]([C@@H](C)O)NC(=O)[C@H](CC(C)C)N(C)C(=O)[C@H](CC(C)C)N(C)C1=O` [DP-499] ([NMeβAla][NMeF][NMeL][NMeA][NMeF]I[NMeL][NMeL]TD[NMeF][NMeF]A-Piperidide; lactam N-10) as the molecule, how does the Papp at 18 hours, 50 µM read?
**A.** The Papp at 18 hours, 50 µM was 0.31 ×10⁻⁶ cm/s.

**Q.** For `CC[C@H](C)[C@@H]1NC(=O)[C@H](C)N(C)C(=O)[C@H]([C@@H](C)O)NC(=O)[C@H](CC(C)C)N(C)C(=O)[C@H](Cc2ccccc2)N(C)C(=O)[C@H](C)N(C)C(=O)[C@@H](C(C)C)NC(=O)C[C@@H](C(=O)N(C)[C@@H](Cc2ccccc2)C(=O)N(C)[C@@H](Cc2ccccc2)C(=O)N[C@@H](C)C(=O)N2CCCCC2)NC(=O)[C@H](C(C)C)N(C)C(=O)[C@H](CC(C)C)N(C)C1=O` [DP-510] ([dV][NMeA][NMeF][NMeL]T[NMeA]I[NMeL][NMeV]D[NMeF][NMeF]A-Piperidide; lactam N-10), which Papp at 18 hours, 50 µM is on record?
**A.** Its Papp at 18 hours, 50 µM is 2.2 ×10⁻⁶ cm/s.

**Q.** With `CC[C@H](C)[C@H](NC(=O)[C@H](C)N(C)C(=O)[C@@H](NC(=O)[C@H](Cc1ccccc1)N(C)C(=O)[C@H](CC(C)C)N(C)C(=O)[C@@H]1CC(=O)N[C@H](C)C(=O)N[C@@H](C(C)C)C(=O)N(C)[C@@H](Cc2ccccc2)C(=O)N(C)[C@@H](CC(C)C)C(=O)N(C)[C@@H](C)C(=O)N[C@@H]([C@@H](C)O)C(=O)N[C@@H](Cc2ccccc2)C(=O)N1)C(C)C)C(=O)N1CCCCC1` [DP-570] ([dA]V[NMeF][NMeL][NMeA]TFD[NMeL][NMeF]V[NMeA]I-Piperidide; lactam N-8) as the molecule, how does the Papp at 18 hours, 50 µM read?
**A.** Its Papp at 18 hours, 50 µM is 2.1 ×10⁻⁶ cm/s.

Same assay, conditions: membrane permeation rate (Pe); 50 mM MOPSO buffer pH 6.5 with 5.0% glycocholic acid, 37° C., 18 hours

**Q.** For `CC[C@H](C)[C@H]1C(=O)N[C@@H](C(C)C)C(=O)N(C)[C@@H](Cc2ccccc2)C(=O)N[C@@H](CC(C)C)C(=O)N(C)[C@@H](Cc2ccccc2)C(=O)N[C@H](C(=O)N(C)[C@@H](Cc2ccccc2)C(=O)N[C@@H](C)C(=O)N[C@H](C(=O)N[C@@H](Cc2ccccc2)C(=O)N2CCCCC2)[C@@H](C)O)CC(=O)N[C@@H](C)C(=O)N[C@@H](CC(C)C)C(=O)N1C` [DP-572] (AL[NMeI]V[NMeF]L[NMeF]D[NMeF]ATF-Piperidide; lactam N-8), which “iPAMPA Pe” value is on record?
**A.** Its value is 1.0E−07.
